Our source for the EC50 values is BindingDB's records for doi:10.7270/Q2Q52N1X (Vanderbilt Screening Center for GPCRs, Ion Channels and …, 2009).

A word on the EC50: it is the midpoint of the concentration-response curve. Higher therefore signals a less potent agent.

One test deals with T1, Solute carrier family 12 member 5 (Homo sapiens, UniProt Q9H2X9).
T1 sequence (Q9H2X9 whole entry): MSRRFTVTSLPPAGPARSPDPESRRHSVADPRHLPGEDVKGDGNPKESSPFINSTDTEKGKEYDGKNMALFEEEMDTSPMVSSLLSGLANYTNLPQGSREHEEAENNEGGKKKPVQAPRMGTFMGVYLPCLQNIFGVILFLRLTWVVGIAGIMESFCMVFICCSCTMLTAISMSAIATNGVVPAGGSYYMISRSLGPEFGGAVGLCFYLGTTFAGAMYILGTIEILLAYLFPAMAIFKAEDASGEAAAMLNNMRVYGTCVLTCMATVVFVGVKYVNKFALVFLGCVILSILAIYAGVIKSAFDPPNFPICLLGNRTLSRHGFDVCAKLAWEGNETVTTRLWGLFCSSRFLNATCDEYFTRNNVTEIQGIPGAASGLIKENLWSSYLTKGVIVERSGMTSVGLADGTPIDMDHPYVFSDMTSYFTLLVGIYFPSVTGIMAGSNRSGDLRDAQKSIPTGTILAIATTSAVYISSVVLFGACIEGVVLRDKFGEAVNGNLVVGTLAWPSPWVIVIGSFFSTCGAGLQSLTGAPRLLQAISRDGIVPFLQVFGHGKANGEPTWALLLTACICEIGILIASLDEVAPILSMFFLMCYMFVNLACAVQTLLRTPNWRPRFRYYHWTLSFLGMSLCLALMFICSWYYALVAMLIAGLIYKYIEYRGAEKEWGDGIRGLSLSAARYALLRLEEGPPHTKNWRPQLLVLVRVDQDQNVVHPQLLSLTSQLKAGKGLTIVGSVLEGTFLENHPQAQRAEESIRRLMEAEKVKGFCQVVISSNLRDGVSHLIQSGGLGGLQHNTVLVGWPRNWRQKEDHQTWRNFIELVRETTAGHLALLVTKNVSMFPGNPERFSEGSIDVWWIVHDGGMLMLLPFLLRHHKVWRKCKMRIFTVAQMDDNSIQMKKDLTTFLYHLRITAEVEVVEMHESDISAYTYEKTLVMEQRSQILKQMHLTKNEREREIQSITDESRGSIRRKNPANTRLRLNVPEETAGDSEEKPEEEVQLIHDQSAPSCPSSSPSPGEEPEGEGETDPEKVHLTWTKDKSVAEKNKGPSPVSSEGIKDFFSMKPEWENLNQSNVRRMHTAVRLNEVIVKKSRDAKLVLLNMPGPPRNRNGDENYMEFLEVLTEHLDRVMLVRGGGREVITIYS
Put plainly: KCC2 modulator potency by thallium flux, dose response, cell-based, HEK293 KCC2, FluoZin-2 fluorescence (AID 1736).
Settings: not given
Take `Cc1cccc(-c2nc(C[S+]([O-])CC(=O)N3CCc4ccccc4C3)c(C)o2)c1` (stereo not drawn) [1-(3,4-dihydro-1H-isoquinolin-2-yl)-2-[[5-methyl-2-(3-methylphenyl)-1,3-oxazol-4-yl]methylsulfinyl]ethanone]: the midpoint of the response, the EC50, lay at 5.03 µM.

`Cn1cc(C(=O)C(=O)N2CCCc3ccccc32)c2ccccc21` [1-(3,4-dihydro-2H-quinolin-1-yl)-2-(1-methyl-3-indolyl)ethane-1,2-dione] returned an EC50 of 3.72 µM.

In turn, `O=C(CSc1ccc(-c2ccccc2)nn1)N1CCCc2ccccc21` [1-(3,4-dihydro-2H-quinolin-1-yl)-2-(6-phenylpyridazin-3-yl)sulfanyl-ethanone] showed an EC50 of 10.5 µM.

In the case of `S=C(NN=Cc1cccc2ccccc12)Nc1cccc(Cl)c1` [1-(3-chlorophenyl)-3-(1-naphthalenylmethylideneamino)thiourea], the EC50 was determined as 12.7 µM.

`O=C(c1ccc(N2CCCCCC2)c([N+](=O)[O-])c1)N1CCc2ccccc21` [1-(4-azepan-1-yl-3-nitrobenzoyl)indoline] had an EC50 of 0.556 µM.

`O=C(CSc1nnc(Cc2ccccc2)o1)c1ccc(F)cc1` [1-(4-fluorophenyl)-2-[[5-(phenylmethyl)-1,3,4-oxadiazol-2-yl]sulfanyl]ethanone] registered an EC50 of 3.85 µM.

`Cc1ccc(S(=O)(=O)N2CCC(=O)N(C(COCc3ccccc3)Cc3ccccc3)CC2)cc1` (stereo not drawn) [1-(4-methylphenyl)sulfonyl-4-(1-phenyl-3-phenylmethoxy-propan-2-yl)-1,4-diazepan-5-one] returned an EC50 of 1.17 µM.

In turn, `S=C(NCc1cccnc1)Nc1ccc(Oc2ccccc2)cc1` [1-(4-phenoxyphenyl)-3-(3-pyridinylmethyl)thiourea] yielded a 50% effective concentration (EC50) of 5.3 µM.

Take `O=C(C[n+]1ccccc1)c1ccc(-c2ccccc2)cc1` [1-(4-phenylphenyl)-2-(1-pyridin-1-iumyl)ethanone;bromide]: the EC50 was determined as 43.6 µM.

On to `Cc1cccc(Nc2nnc(SCC(=O)c3ccc(Br)s3)s2)c1C` [1-(5-bromanylthiophen-2-yl)-2-[[5-[(2,3-dimethylphenyl)amino]-1,3,4-thiadiazol-2-yl]sulfanyl]ethanone], for which the EC50 was 1.49 µM.

Molecule `Cc1ccc(Nc2nnc(SCC(=O)c3ccc(Br)s3)s2)c(C)c1` [1-(5-bromanylthiophen-2-yl)-2-[[5-[(2,4-dimethylphenyl)amino]-1,3,4-thiadiazol-2-yl]sulfanyl]ethanone] gave an EC50 of 1.02 µM.

`Cc1noc(C)c1S(=O)(=O)N1CCC(C(=O)N2CCN(c3ccc(F)cc3)CC2)CC1` [1-({1-[(3,5-dimethylisoxazol-4-yl)sulfonyl]piperidin-4-yl}carbonyl)-4-(4-fluorophenyl)piperazine]: the EC50 was 7.58 µM.

For `O=S(=O)(NCc1ccccc1)c1ccc(Cl)c(S(=O)(=O)NCc2ccccc2)c1` [1-N,3-N-dibenzyl-4-chlorobenzene-1,3-disulfonamide], the concentration giving a half-maximal response (EC50) worked out at 2.11 µM.

`Cc1nc2cc(C(F)(F)F)ccc2n1C1CCN(Cc2nnnn2Cc2ccc3c(c2)OCO3)CC1` [1-[1-(1-Benzo[1,3]dioxol-5-ylmethyl-1H-tetrazol-5-ylmethyl)-piperidin-4-yl]-2-methyl-5-trifluoromethyl-1H-benzoimidazole] registered an EC50 of 16.4 µM.

As to `CC(C)(CN=C(S)NCCc1ccccc1)CN=C(S)NCCc1ccccc1` [1-[2,2-dimethyl-3-(2-phenylethylcarbamothioylamino)propyl]-3-(2-phenylethyl)thiourea], the EC50 was 0.929 µM.

As to `CCOC(=O)c1cc2c(ccn2C)n1CC(=O)N1CCC(Cc2ccccc2)CC1` [1-[2-(4-Benzyl-piperidin-1-yl)-2-oxo-ethyl]-4-methyl-1,4-dihydro-pyrrolo[3,2-b]pyrrole-2-carboxylic acid ethyl ester], the EC50 came to 7.58 µM.

For the molecule `Cc1ccc2oc(-c3ccc(C)c(NC(=S)NC(=O)c4cccs4)c3)nc2c1` [1-[2-Methyl-5-(5-methyl-benzooxazol-2-yl)-phenyl]-3-(thiophene-2-carbonyl)-thiourea], the EC50 worked out at 0.2 µM.

In turn, `CCC(c1nnc(SCc2nc3ccccc3s2)n1Cc1ccccc1)N(C)C` (stereo not drawn) [1-[5-(1,3-benzothiazol-2-ylmethylsulfanyl)-4-(phenylmethyl)-1,2,4-triazol-3-yl]-N,N-dimethyl-propan-1-amine] gave an EC50 of 6.62 µM.

The molecule `CN(Cc1ccccc1)c1nc2nonc2nc1N1CCCC(CN2CCCC2=O)C1` (stereo not drawn) [1-[(1-{6-[benzyl(methyl)amino][1,2,5]oxadiazolo[3,4-b]pyrazin-5-yl}piperidin-3-yl)methyl]pyrrolidin-2-one] gave an EC50 of 9050 µM.

As to `S=C(NCCc1ccccc1)NN=Cc1cccc(Cl)c1Cl` [1-[(2,3-dichlorobenzylidene)amino]-3-phenethyl-thiourea], the EC50 is 7.78 µM.

Molecule `Fc1cccc(F)c1C=NNC(=S)Nc1cccnc1` [1-[(2,6-difluorobenzylidene)amino]-3-(3-pyridyl)thiourea] registered an EC50 of 5.9 µM.

Turning to `NC(=S)NN=C1C(=O)N(Cc2ccc(F)cc2)c2ccccc21` [1-[(Z)-[1-[(4-fluorophenyl)methyl]-2-oxidanylidene-indol-3-ylidene]amino]thiourea], the response was half-maximal at 38 µM (EC50).

For `NC(=S)NN=C1C(=O)N(Cc2ccccc2)c2ccccc21` [1-[(Z)-[2-oxidanylidene-1-(phenylmethyl)indol-3-ylidene]amino]thiourea], the EC50 was determined as 0.618 µM.

For `O=C(C1CC1)N1CCc2cc(S(=O)(=O)NC3CCN(Cc4ccccc4)CC3)ccc21` [1-[cyclopropyl(oxo)methyl]-N-[1-(phenylmethyl)-4-piperidinyl]-2,3-dihydroindole-5-sulfonamide], the EC50 came out at 22.7 µM.

On to `O=C(NN=Cc1ccc(OCc2ccccc2)cc1)c1cc[n+](Cc2ccccc2)cc1` [1-benzyl-4-({2-[4-(benzyloxy)benzylidene]hydrazino}carbonyl)pyridinium chloride], for which the response was half-maximal at 563 µM (EC50).

Turning to `O=C(CSc1ccc(-c2ccccc2)nn1)c1ccccc1` [1-phenyl-2-(6-phenylpyridazin-3-yl)sulfanyl-ethanone], the EC50 is 0.862 µM.

`CC1CCN(C(=O)c2ccc(SCc3ccccc3F)c([N+](=O)[O-])c2)CC1` [1-{4-[(2-fluorobenzyl)thio]-3-nitrobenzoyl}-4-methylpiperidine] gave an EC50 of 1.94 µM.

As to `O=C(c1ccc(S(=O)(=O)c2cccc(Cl)c2)c([N+](=O)[O-])c1)N1CCN(c2ccccn2)CC1` [1-{4-[(3-chlorophenyl)sulfonyl]-3-nitrobenzoyl}-4-pyridin-2-ylpiperazine], the EC50 came out at 3.61 µM.

Regarding `O=C(NN=Cc1ccc(Cl)s1)C1COc2ccccc2O1` (stereo not drawn) [2,3-Dihydro-benzo[1,4]dioxine-2-carboxylic acid [1-(5-chloro-thiophen-2-yl)-meth-(Z)-ylidene]-hydrazide], the EC50 was determined as 32.7 µM.

For `COc1cc(C=NNC(=O)CN(Cc2ccccc2)S(=O)(=O)c2ccc3c(c2)OCCO3)ccc1O` [2,3-Dihydro-benzo[1,4]dioxine-6-sulfonic acid benzyl-(4-hydroxy-3-methoxy-benzylidene-hydrazinocarbonylmethyl)-amide], a half-maximal effect (EC50) was put at 3.15 µM.

As to `O=C(NC(=S)Nc1nc(-c2cccc([N+](=O)[O-])c2)cs1)c1cc(Cl)ccc1Cl` [2,5-bis(chloranyl)-N-[[4-(3-nitrophenyl)-1,3-thiazol-2-yl]carbamothioyl]benzamide], the EC50 was determined as 34.7 µM.

`Cc1ccc(C)c(C(=O)NC(C)CCc2ccccc2)c1` (stereo not drawn) [2,5-dimethyl-N-(1-methyl-3-phenyl-propyl)benzamide]: the EC50 worked out at 3.82 µM.

In turn, `CCn1nnnc1SCC(=O)Nc1nc(-c2cccs2)cs1` [2-(1-Ethyl-1H-tetrazol-5-ylsulfanyl)-N-(4-thiophen-2-yl-thiazol-2-yl)-acetamide] yielded a concentration for a half-maximal effect (EC50) of 1.97 µM.

`Cn1c(CSc2nc3ccccc3s2)nc2ccccc21` [2-(1-Methyl-1H-benzoimidazol-2-ylmethylsulfanyl)-benzothiazole] gave an EC50 of 12.4 µM.

As to `C=CCNc1oc(Cc2cccc3ccccc23)nc1C#N` [2-(1-naphthalenylmethyl)-5-(prop-2-enylamino)-4-oxazolecarbonitrile], the midpoint of the response, the EC50, lay at 12.1 µM.

In turn, `O=C(CN1C(=O)NC2(CCCC2)C1=O)Nc1nc(-c2ccc(F)cc2)cs1` [2-(2,4-diketo-1,3-diazaspiro[4.4]nonan-3-yl)-N-[4-(4-fluorophenyl)thiazol-2-yl]acetamide] gave an EC50 of 0.231 µM.

The same test, now with this note: inactive by the depositor's call.
For `O=C(NC(=S)Nc1ccc2c(c1)OCO2)c1ccc(Cl)cc1` [1-Benzo[1,3]dioxol-5-yl-3-(4-chloro-benzoyl)-thiourea], the EC50 is 0.0741 µM.

Consider `CSc1ccc(NC(=O)NCCN2CCc3ccccc3C2)cc1` [1-[2-(3,4-dihydro-1H-isoquinolin-2-yl)ethyl]-3-(4-methylsulfanylphenyl)urea], for which a half-maximal response (EC50) required 21.5 µM.
